According to patent US20240270762A1, “PENICILLIN-BINDING PROTEIN INHIBITORS” (priority 2021, published 2024):
Converted amounts (≈) assume the structure as drawn.

Legend:
Assay type in all cases: cell-based
B. pseudomallei Bp82 = test: microbe, parasite or virus in culture; settings: Burkholderia pseudomallei, BP82, read-out: Minimum inhibitory concentration, B. pseudomallei Bp82
P. aeruginosa CDC-0110 = test: microbe, parasite or virus in culture; settings: Pseudomonas aeruginosa, CDC0110, read-out: Minimum inhibitory concentration, P. aeruginosa CDC-0110
E. coli AG100 = test: microbe, parasite or virus in culture; settings: Escherichia coli, AG100, read-out: MIC E. coli AG100
E. coli D22 = test: microbe, parasite or virus in culture; settings: Escherichia coli, D22, read-out: MIC E. coli D22
E. coli AG100A = test: Broth microdilution MIC in CAMHB; settings: Escherichia coli, read-out: MIC E. coli AG100A
K. pneumoniae 848844 = test: microbe, parasite or virus in culture; settings: Klebsiella pneumoniae, 848844, read-out: MIC K. pneumoniae 848844
P. aeruginosa ATCC 27853 = test: microbe, parasite or virus in culture; settings: Pseudomonas aeruginosa, ATCC27853, read-out: MIC P. aeruginosa ATCC 27853
[1] = test system: P. aeruginosa (ΔmexAB-oprM); test: Broth microdilution MIC in CAMHB; settings: Pseudomonas aeruginosa; read-out: MIC P. aeruginosa ΔmexAB-oprM

O=C(O)c1c(F)ccc2c1OB(O)[C@@H](NC(=O)[C@H](NC(=O)N1CCN(C3CCN(C(=O)c4cc(O)c(O)c(Cl)c4)CC3)C1=O)c1ccc(P(=O)(O)O)cc1)C2 [Example 496, (R)-3-((R)-2-(3-(1-(3-chloro-4,5-dihydroxybenzoyl)piperidin-4-yl)-2-oxoimidazolidine-1-carboxamido)-2-(4-phosphonophenyl)acetamido)-7-fluoro-2-hydroxy-3,4-dihydro-2H-benzo[e][1,2]oxaborinine-8-carboxylic acid]
MIC (B. pseudomallei Bp82): < 1 µg/mL
MIC (P. aeruginosa CDC-0110): < 1 µg/mL

O=C(O)c1c(F)ccc2c1OB(O)[C@@H](NC(=O)[C@H](NC(=O)N1CCN(Cc3ccc(O)c(O)c3Cl)C(=O)C1=O)c1cc(F)c(P(=O)(O)O)c(F)c1)C2 [Example 502, (R)-3-((R)-2-(4-(2-chloro-3,4-dihydroxybenzyl)-2,3-dioxopiperazine-1-carboxamido)-2-(3,5-difluoro-4-phosphonophenyl)acetamido)-7-fluoro-2-hydroxy-3,4-dihydro-2H-benzo[e][1,2]oxaborinine-8-carboxylic acid]
MIC (B. pseudomallei Bp82): < 1 µg/mL
MIC (P. aeruginosa CDC-0110): < 1 µg/mL

O=C(O)c1c(F)ccc2c1OB(O)[C@@H](NC(=O)[C@H](NC(=O)N1CCN(C3CCN(C(=O)c4ccc(O)c(O)c4Cl)CC3)C1=O)c1ccc(P(=O)(O)O)cc1)C2 [Example 494, (R)-3-((R)-2-(3-(1-(2-chloro-3,4-dihydroxybenzoyl)piperidin-4-yl)-2-oxoimidazolidine-1-carboxamido)-2-(4-phosphonophenyl)acetamido)-7-fluoro-2-hydroxy-3,4-dihydro-2H-benzo[e][1,2]oxaborinine-8-carboxylic acid]
MIC (B. pseudomallei Bp82): < 1 µg/mL
MIC (P. aeruginosa CDC-0110): < 1 µg/mL

O=C(O)c1c(F)ccc2c1OB(O)[C@@H](NC(=O)C(NC(=O)N1CCN(S(=O)(=O)c3ccc(O)c(O)c3Cl)C1=O)c1ccc(P(=O)(O)O)cc1)C2 (stereo partly drawn) [Example 505, (3R)-3-(2-(3-((2-chloro-3,4-dihydroxyphenyl)sulfonyl)-2-oxoimidazolidine-1-carboxamido)-2-(4-phosphonophenyl)acetamido)-7-fluoro-2-hydroxy-3,4-dihydro-2H-benzo[e][1,2]oxaborinine-8-carboxylic acid]
MIC (E. coli AG100): < 1 µg/mL
MIC (E. coli D22): < 1 µg/mL
MIC (E. coli AG100A): < 1 µg/mL
MIC (K. pneumoniae 848844): < 1 µg/mL
MIC (P. aeruginosa ATCC 27853): < 1 µg/mL
MIC [1]: < 1 µg/mL
MIC (B. pseudomallei Bp82): < 1 µg/mL
MIC (P. aeruginosa CDC-0110): < 1 µg/mL

O=C(O)c1c(F)ccc2c1OB(O)[C@@H](NC(=O)[C@H](NC(=O)N1CCN(S(=O)(=O)c3ccc(O)c(O)c3Cl)C1=O)c1ccc(P(=O)(O)O)cc1)C2 [Example 506, (R)-3-((R)-2-(3-((2-chloro-3,4-dihydroxyphenyl)sulfonyl)-2-oxoimidazolidine-1-carboxamido)-2-(4-phosphonophenyl)acetamido)-7-fluoro-2-hydroxy-3,4-dihydro-2H-benzo[e][1,2]oxaborinine-8-carboxylic acid]
MIC (E. coli AG100): < 1 µg/mL
MIC (E. coli D22): < 1 µg/mL
MIC (E. coli AG100A): < 1 µg/mL
MIC (K. pneumoniae 848844): 2 to 4 µg/mL (≈ 2.64 to 5.29 µM)
MIC (P. aeruginosa ATCC 27853): < 1 µg/mL
MIC [1]: < 1 µg/mL
MIC (B. pseudomallei Bp82): < 1 µg/mL
MIC (P. aeruginosa CDC-0110): < 1 µg/mL

O=C(O)c1c(F)ccc2c1OB(O)[C@@H](NC(=O)[C@H](NC(=O)N1CCN(C3CCN(C(=O)c4cc(F)c(O)c(O)c4Cl)CC3)C1=O)c1ccc(P(=O)(O)O)cc1)C2 (single isomer, unassigned) [Example 495]
MIC (B. pseudomallei Bp82): < 1 µg/mL
MIC (P. aeruginosa CDC-0110): < 1 µg/mL

O=C(O)c1c(F)ccc2c1OB(O)[C@@H](NC(=O)[C@H](NC(=O)N1CCN(C3CCN(C(=O)Nc4cc(F)c(O)c(O)c4Cl)CC3)C1=O)c1ccc(P(=O)(O)O)cc1)C2 (single isomer, unassigned) [Example 500]
MIC (B. pseudomallei Bp82): < 1 µg/mL
MIC (P. aeruginosa CDC-0110): < 1 µg/mL

O=C(O)c1cccc2c1OB(O)[C@@H](NC(=O)[C@H](NC(=O)N1CCN(S(=O)(=O)c3ccc(O)c(O)c3Cl)C1=O)c1ccc(P(=O)(O)O)cc1)C2 [Example 509, (R)-3-((R)-2-(3-((2-chloro-3,4-dihydroxyphenyl)sulfonyl)-2-oxoimidazolidine-1-carboxamido)-2-(4-phosphonophenyl)acetamido)-2-hydroxy-3,4-dihydro-2H-benzo[e][1,2]oxaborinine-8-carboxylic acid]
MIC (E. coli AG100): < 1 µg/mL
MIC (E. coli D22): < 1 µg/mL
MIC (E. coli AG100A): < 1 µg/mL
MIC (K. pneumoniae 848844): < 1 µg/mL
MIC (P. aeruginosa ATCC 27853): < 1 µg/mL
MIC [1]: < 1 µg/mL
MIC (B. pseudomallei Bp82): < 1 µg/mL
MIC (P. aeruginosa CDC-0110): < 1 µg/mL
